Reference: patent US20230414554A1, “COMPOUNDS FOR TREATING HEPATOCELLULAR CARCINOMA” (SERVICIO ANDALUZ DE SALUD, priority 2020, published 2023)

How the values were obtained:
THLE-2 cells = assay: Cell proliferation/viability of cell line derived from normal hepatocytes; type: cell-based; conditions: after 72 h; pladienolide-B 10^−8 M, sorafenib 5 nM
Procedure: Cell lines and treatments HepG2, Hep3b, and SNU-387 (HB-8065) cell lines were purchased from ATCC (Manassas, USA) and cultured as recommended. The cells were kept at 37° C. and 5% CO2, and periodically validated by means of STR analysis (GenePrint, Promega, Barcelona, Spain) and analyzed to detect mycoplasma contamination. THLE-2 cells were cultured according to the manufacturer's instructions. […] Positive controls [IGF-1 (10^−6M)] and negative controls [Paclitaxel (10^−7M)] were used.
The determination of cell proliferation, migration, apoptosis, clone and tumorsphere formation was performed as published previously.

[1] = system: Hep3b-induced xenograft tumors; assay: Hep3b xenograft model, tumor growth and necrosis; type: in vivo, nude mice; conditions: sorafenib 30 mg/kg in drinking water for 3 days; histopathology vs vehicle
Procedure: For in vitro and in vivo administrations, pladienolide-B (Santa Cruz, Heidelberg, Germany) was resuspended in DMSO (Sigma-Aldrich, Madrid, Spain). For in vitro administration, sorafenib (LC Laboratories, Woburn, USA) was dissolved in DMSO. […] For in vivo tests, sorafenib was dissolved in Cremophor EL/ethanol (50:50).
Experiments with xenograft mice were conducted in accordance with the European Animal Care Regulations under the approval of the university/regional government research ethics committees. 5×10^6 Hep3b cells (n=16 mice; n=32 tumors) in 50 μl of BME (Trevigen, Gaithersburg, MD) were subcutaneously grafted on both flanks of eight-week-old male Fox1nu/Foxn1nu nude mice (Janvier Labs, Le Genest-Saint-Isle, France). Tumor growth was monitored twice a week for 2 months by means of using a digital caliper. In the third week after grafting, when tumors were visible, the mice were treated with vehicle, pladienolide B, sorafenib, or the combination thereof (n=4 mice/treatment; n=8 tumors/treatment). Sorafenib (30 mg/kg) was administered dissolved in drinking water for 3 days; whereas the water of the remaining mice was treated with cremophor/ethanol vehicle. Pladienolide-B (10^−8M) was injected intratumorally on the second day of treatment with sorafenib. […] Tumor necrosis was evaluated after hematoxylin and eosin staining by expert pathologists.

## CNC(=O)c1cc(Oc2ccc(NC(=O)Nc3ccc(Cl)c(C(F)(F)F)c3)cc2)ccn1 [sorafenib, reference compound]
THLE-2 cells
  viability of THLE-2 cells: significantly reduced same
[1]
  tumor necrosis: greater necrosis than tumors treated with vehicle
